Results as given in US6440406B1, “Attractant for monitoring and control of adult scarabs” (The United States of America as represented by the …, priority 1997, dated 2002).

Columns and labels:
Assay type in all cases: in vivo
[1] = system: Euphoria sedpulcralis; assay: Field trap capture, College Station, TX; conditions: number of incidents over the study where more than one target insect was trapped (male and female, 4 repetitions)
Protocol: (§1) The mixture of all five volatile components, prepared as described in Lopez et al. (U.S. patent application Ser. No. 09/166,655, filed Oct. 5, 1998) was evaluated as an attractant for scarabs. Evaluations using the mixture in traps were conducted at various sites at Dallas, Tex., adjacent to corn or cotton fields in an agricultural area SW of College Station, Tex., and in different habitats at various locations in Mexico. The primary trap used was the Trece Catch Can with a yellow top and a green catch container obtained from Trece, Inc., Salinas, Calif. At College Station only, wire cone traps originally designed to capture noctuid moths (Hartstack et al., Jour. Econ. Entomol., 72:319-322, 1979) were also used in the evaluations. The traps were operated about 1 meter above ground level and were spaced at different distances based on the amount of space available in which to conduct the evaluations. Treatments were assigned to traps in trap lines either randomly or rotated every time the traps were checked to minimize trap location effects. Attractants for evaluation were dispensed primarily from sintered polyethylene to which the attractant was added until saturated. The sintered polyethylene was placed in various plastic containers to facilitate placing on the traps for evaluation. At College Station only, cotton dental wicks were used to dispense the attractants for evaluation by applying the attractants mixed with methylene chloride as a solvent. Traps were checked as appropriate based on the number of numbers of scarabs trapped.
(§2) The volatile components were evaluated individually and in combination for efficacy for capturing scarabs. The evaluations were conducted as described in Example 1 near College Station, Tex., and Dallas, Tex., except that the volatile components were assayed individually as well.
(§3) In the College Station, Tex., data, the numbers represent the frequencies or number of incidents, over the course of the study, where more than one target insect was trapped (male and female, 4 repetitions). The Dallas, Tex., data represents the numbers of males/females captured. Abbreviations for the active agents tested are as follows: Mix M=five component mixture as described in Example 1, MMB=methyl-2-methoxybenzoate, MS=methyl salicylate, PA=phenylacetaldehyde, PE=2-phenylethanol, PEG=Japanese Beetle Lure, and SL=limonene.

[2] = system: Cotinis nitida; assay: Field trap capture, College Station, TX; conditions: number of incidents over the study where more than one target insect was trapped (male and female, 4 repetitions)
Protocol: as §1, §2, §3

[3] = system: Phyllophaga congrua; assay: Field trap capture, Dallas, TX; conditions: baited traps
Protocol: as §1, §2, §3

[4] = system: Phyllophaga crassissima; assay: Field trap capture, Dallas, TX; conditions: baited traps
Protocol: as §1, §2, §3

[5] = system: Phyllophaga crinita; assay: Field trap capture, Dallas, TX; conditions: baited traps
Protocol: as §1, §2, §3

Structure (SMILES) | Frequencies of trapping > 1 beetle [1] | Frequencies of trapping > 1 beetle [2] | no. females captured [3] | no. males captured [3] | no. females captured [4] | no. males captured [4] | no. females captured [5] | no. males captured [5]
CC=Cc1ccc(OC)cc1 [Anethol, reference compound] | 0 | 1 | 3 | 0 | 56 | 79 | 0 | 14
COC(=O)c1ccccc1OC [MMB, methyl-2-methoxybenzoate] | 0 | 1 | 3 | 0 | 11 | 16 | 7 | 8627
COC(=O)c1ccccc1O [MS, methyl salicylate] | 0 | 0 | 0 | 4 | 10 | 6 | 0 | 23
O=CCc1ccccc1 [PA, phenylacetaldehyde] | 1 | 13 | 1 | 5 | 3 | 9 | 1 | 16
OCCc1ccccc1 [PE, 2-phenylethanol] | 0 | 2 | 2 | 5 | 5 | 8 | 1 | 11
C=C(C)[C@H]1CC=C(C)CC1 [SL, limonene] | 0 | 0 | 2 | 1 | 3 | 4 | 3 | 32
